According to patent publication US20240254531A1, “Enhancing Coupled Catalytic Activity of Multi-Enzyme Cascades With Liquid-Liquid Phase Separation Using Peptide-Based Condensates” (The Government of the United States of America, as …, priority 2023, published 2024):

Legend:
other enzymes = experiment: enhancement of activity of other enzymes by peptide; assay type: biochemical; details: as detailed in the Appendix of Provisional Patent Application No. 63/482,369
[1] = system: three enzyme cascade (AspB, LysC, Asd); experiment: three-enzyme cascade reaction, rate of NADP+ formation with added peptide; assay type: biochemical, Bacillus subtilis (AspB); E. coli (LysC; details: addition of peptide vs no BP, FIG. 6A
Source text: A three-enzyme cascade was used for these examples. The first enzyme in the cascade is Bacillus subtilis aspartate ammonia lyase (AspB), which catalyzes the conversion of fumaric acid to aspartic acid. The AspB gene utilized here encodes a 54.5 kDa monomer which assembles into a final active tetramer. The second enzyme is E. coli aspartokinase III (LysC) which phosphorylates aspartic acid in the second step using adenosine triphosphate (ATP) as the phosphate donor. The LysC gene encodes a 49.9 kDa monomer, which assembles into an active ˜100 kDa homodimer. The third enzyme in the cascade, E. coli aspartate-ß-semialdehyde dehydrogenase (Asd), catalyzes conversion of aspartyl phosphate to aspartate semialdehyde using nicotinamide adenine dinucleotide phosphate (NADPH) as the reducing co-factor. The Asd gene encodes a 41.4 kDa monomer which assembles into the active homodimer.
FIG. 2 provides data for free enzymes (not bound to QD) in the presence of different blocking peptides described in Table 1. […]
(§1) Also assayed were two peptides comprising primarily histidine, termed His9 and His12, with their sequences provided below in Table 3. […] FIG. 6C is a fluorescence microscopy image of the same subject of FIG. 6B showing that Alexa594 labeled enzymes are colocalized to the coacervate interior.

[2] = brightfield microscopy of peptide coacervate formation; assay type: physicochemical; details: brightfield microscopy image, FIG. 6B
Source text: FIGS. 6A-6C show data for enhancement with His9 and His12 peptides and fluorescence micrograph images denoting coacervate formation and localization of enzymes within the coacervates. In FIG. 6A one can see the normalized initial rate of NADP+ formation of the three enzyme cascade with no BP or with addition of the His9 and His12 peptides. The flux through the cascade is increased with the addition of the BP. […] FIG. 6C is a fluorescence microscopy image of the same field as FIG. 6B showing that Alexa594 labeled enzymes are colocalized to the coacervate interior. Excitation was with a 562 nm laser and detection at 570-620 nm.
as §1, with “3. FIGS. 6A to 6C show data relating to these peptides. […] The flux through the cascade is increased with the addition of the BP.” for “3.”

Substance	activity of other enzymes (other enzymes)	flux through the cascade (normalized initial rate of NADP+ formation) [1]	coacervate formation [2]
[NH2]GSWHHHHHH[Amide] (H-GSWHHHHHH-NH2) [His-amine]	enhance activity		
[NH2]WHHHHHHHHHHHH[COOH] (H-WHHHHHHHHHHHH-OH) [His12]		increased	
[NH2]WHHHHHHHHH[COOH] (H-WHHHHHHHHH-OH) [His9]		increased	form coacervates
